# Target: T1, Trypsin (Bos taurus, UniProt P00760)
# T1 construct: Purified (3×-crystallized; TRL3) bovine pancreatic trypsin was obtained from Worthington Biochemical Corp; purchased Worthington Biochemical Corp. TRL3; host or cells: bovine pancreas
# T1 sequence (P00760 24-246): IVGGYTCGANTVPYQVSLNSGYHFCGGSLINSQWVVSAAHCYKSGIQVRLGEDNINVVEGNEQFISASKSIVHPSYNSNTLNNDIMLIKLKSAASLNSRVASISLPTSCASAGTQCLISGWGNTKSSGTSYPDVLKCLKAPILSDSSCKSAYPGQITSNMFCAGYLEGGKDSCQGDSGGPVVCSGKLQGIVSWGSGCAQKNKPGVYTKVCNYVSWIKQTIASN
# Test: Trypsin chromogenic substrate assay (S-2222)
# Type: biochemical
# Conditions: bovine pancreatic trypsin 0.5 nM, S-2222 250 μM, HBSA pH 7.5
# Experimental: (§1) The ability of compounds of the present invention to act as a selective inhibitor of thrombin activity was assessed by determining the concentration of test-compound which inhibited the activity of this enzyme by 50%, (IC50) or by determining the Ki value, and comparing this value to that determined for all or some of the following related serine proteases: recombinant tissue plasminogen activator (rt-PA), plasmin, activated protein C, chymotrypsin, factor Xa and trypsin. Ki is calculated from the IC50.
# (§2) The buffer used for all assays was HBSA (10 mM HEPES, pH 7.5, 150 mM sodium chloride, 0.1% bovine serum albumin).
# The assay for IC50 or Ki determinations was conducted by combining in appropriate wells of a Corning microtiter plate, 50 microliters of HBSA, 50 microliters of the test compound at a specified concentration (covering a broad concentration range) diluted in HBSA (or HBSA alone for V0 (uninhibited velocity) measurement), and 50 microliters of the enzyme diluted in HBSA. […] The initial velocity of chromogenic substrate hydrolysis was measured by the change in absorbance at 405 nm using a Thermo Max® Kinetic Microplate Reader over a 5 minute period in which less than 5% of the added substrate was utilized. […] Ki may be calculated from the IC50 value. […]
row,IC50 [nM],SMILES
1,300 to 2500,Cc1ccc(NS(=O)(=O)Cc2ccccc2)c(=O)n1CCCNc1ccncc1 [A]

# Target: Thrombin (Homo sapiens, UniProt P00734)
# Test: Thrombin (fIIa) chromogenic substrate assay (Pefachrome t-PA)
# Type: biochemical
# Conditions: human a-thrombin 0.5 nM, Pefachrome t-PA 250 μM, 30 min preincubation, HBSA pH 7.5; Ki calculated from the IC50
# Experimental: as §1, §2
# The assay for IC50 or Ki determinations was conducted by combining in appropriate wells of a Corning microtiter plate, 50 microliters of HBSA, 50 microliters of the test compound at a specified concentration (covering a broad concentration range) diluted in HBSA (or HBSA alone for V0 (uninhibited velocity) measurement), and 50 microliters of the enzyme diluted in HBSA. Following a 30 minute incubation at ambient temperature, 50 microliters of the substrate at the concentrations specified below were added to the wells, yielding a final total volume of 200 microliters. The initial velocity of chromogenic substrate hydrolysis was measured by the change in absorbance at 405 nm using a Thermo Max® Kinetic Microplate Reader over a 5 minute period in which less than 5% of the added substrate was utilized. The concentration of added inhibitor which caused a 50% decrease in the initial rate of hydrolysis was defined as the IC50 value. Ki may be calculated from the IC50 value.
# Enzyme activity was determined using the chromogenic substrate, Pefachrome t-PA (CH3SO2-D-hexahydrotyrosine-glycyl-L-Arginine-p-nitroaniline, obtained from Pentapharm Ltd.). The substrate was reconstituted in deionized water prior to use.
# The initial velocity of Pefachrome t-PA hydrolysis was measured by the change in absorbance at 405 nm using a Thermo Max® Kinetic Microplate Reader over a 5 minute period in which less than 5% of the added substrate was utilized. The concentration of added inhibitor which caused a 50% decrease in the initial rate of hydrolysis was defined as the IC50 value. Ki was calculated from the IC50 value.
row,Ki [nM],SMILES
1,≤ 100,Cc1ccc(NS(=O)(=O)Cc2ccccc2)c(=O)n1CCCNc1ccncc1 [A]
2,≤ 100,Cc1cnc(NCC(F)(F)c2ccccc2)c(=O)n1CCNc1ccncc1 [B]
3,≤ 100,Cc1cnc(NCC(F)(F)c2ccccc2)c(=O)n1CCCNc1ccncc1 [C]
4,100 to 300,Cc1cnc(NCCc2ccccc2)c(=O)n1CCCNc1ccncc1 [D]
5,≤ 100,Cc1ccc(NS(=O)(=O)Cc2ccccc2)c(=O)n1CCCN(C)c1ccncc1 [E]
6,≤ 100,Cc1ccc(NS(=O)(=O)Cc2ccc(Cl)cc2)c(=O)n1CCCNc1ccncc1 [F]
7,100 to 300,Cc1ccc(NS(=O)(=O)Cc2ccccc2)c(=O)n1CCCNc1ncnc2[nH]cnc12 [G]
8,≤ 100,Cc1ccc(NS(=O)(=O)Cc2ccccc2)c(=O)n1CCCNc1ccc2ncccc2c1 [H]
9,≤ 100,Cc1ccc(NS(=O)(=O)Cc2ccccc2)c(=O)n1CCCNc1ccc2cc[nH]c2c1 [I]
10,≤ 100,Cc1ccc(NS(=O)(=O)Cc2ccccc2)c(=O)n1CCCNc1ccncc1F [J]
11,≤ 100,Cc1ccc(NS(=O)(=O)Cc2ccc(Cl)cc2)c(=O)n1CCCNc1ccncc1F [K]
12,≤ 100,Cc1ccc(NS(=O)(=O)Cc2ccccc2)c(=O)n1CCCNc1ccnc2ccccc12 [L]
13,≤ 100,Cc1ccc(NS(=O)(=O)Cc2ccccc2)c(=O)n1CCCNc1ccncn1 [M]
14,100 to 300,Cc1ccc(NS(=O)(=O)Cc2ccccc2)c(=O)n1CCCNc1ccc(N)nc1 [N]
15,100 to 300,Cc1cnc(NCCCc2ccccc2)c(=O)n1CCCNc1ccncc1 [O]
16,100 to 300,Cc1ccc(NS(=O)(=O)Cc2ccccc2)c(=O)n1CCCNc1cccc2ncccc12 [P]
17,300 to 2500,Cc1ccc(NS(=O)(=O)Cc2ccccc2)c(=O)n1CCCn1ncc2ccc(N)cc21 [Q]
18,300 to 2500,Cc1ccc(NS(=O)(=O)Cc2ccccc2)c(=O)n1CCCNc1cccc(N)n1 [R]
